# Patent US11512069B2, “TLR7/8 antagonists and uses thereof” (Merck Patent GmbH, priority 2016, dated 2022)
# Target: T1, TLR7 (Homo sapiens, UniProt Q9NYK1)
# T1 construct: expressed in transfected cells; host or cells: HEK cells carrying TLR7 and an NF-kB reporter read with Steady-Glo
# T1 sequence (Q9NYK1 27-1049): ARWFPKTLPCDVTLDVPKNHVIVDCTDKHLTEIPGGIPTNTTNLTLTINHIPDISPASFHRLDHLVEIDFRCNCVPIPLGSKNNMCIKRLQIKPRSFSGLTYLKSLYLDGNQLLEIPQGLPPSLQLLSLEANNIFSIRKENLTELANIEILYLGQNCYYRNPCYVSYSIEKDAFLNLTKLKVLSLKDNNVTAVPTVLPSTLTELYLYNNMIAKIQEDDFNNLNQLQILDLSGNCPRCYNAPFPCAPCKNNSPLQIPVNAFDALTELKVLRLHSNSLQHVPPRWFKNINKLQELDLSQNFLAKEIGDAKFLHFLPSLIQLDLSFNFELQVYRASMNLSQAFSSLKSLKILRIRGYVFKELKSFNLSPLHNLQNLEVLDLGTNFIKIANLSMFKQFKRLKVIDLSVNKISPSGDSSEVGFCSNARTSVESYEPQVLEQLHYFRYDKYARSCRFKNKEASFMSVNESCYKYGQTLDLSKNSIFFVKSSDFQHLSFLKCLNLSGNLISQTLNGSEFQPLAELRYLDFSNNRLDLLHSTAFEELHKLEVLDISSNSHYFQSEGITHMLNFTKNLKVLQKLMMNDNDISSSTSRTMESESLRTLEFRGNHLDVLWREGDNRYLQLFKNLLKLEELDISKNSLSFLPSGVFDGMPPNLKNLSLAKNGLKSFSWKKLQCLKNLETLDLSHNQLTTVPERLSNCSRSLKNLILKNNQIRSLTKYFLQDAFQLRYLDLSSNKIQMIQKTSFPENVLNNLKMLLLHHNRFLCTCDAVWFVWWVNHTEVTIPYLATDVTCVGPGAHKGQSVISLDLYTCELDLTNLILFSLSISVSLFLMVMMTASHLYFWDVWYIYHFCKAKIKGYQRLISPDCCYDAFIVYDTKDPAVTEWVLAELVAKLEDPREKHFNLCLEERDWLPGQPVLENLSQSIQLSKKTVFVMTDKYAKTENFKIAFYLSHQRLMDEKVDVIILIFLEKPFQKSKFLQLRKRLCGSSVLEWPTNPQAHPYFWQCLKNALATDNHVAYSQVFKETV
# Assay: HEK Cell Assay (TLR7/NFKb HEK reporter cells, Steady-Glo)
# Format: cell-based
# Details: compound 30 min, then R*48 agonist 5 hours, Steady-Glo readout, read-out: Potency
# Protocol: Example 32: HEK Cell Assay
# Into 384 CulturePlates (Corning 3707) was placed 5000 c/w of TLR7/NFKb HEK cells in 30 uL DMEM without Phenil red (gibco #31053) and 10% i.a. FCS and 2 mM L-ZGLutamin. The cells were incubated for 24 h at 37 degrees Celsius, 10% carbon dioxide and 90% relative humidity, 3 uL of controls, standards, and compounds were dispensed to wells, incubated for 30 min then 3 uL of R*48 agonist in 20 mM Hepes was added. After incubation for 5 hours, it was allowed to stand at room temperature for 15 min, 10 uL of Steady-Glo substrate reagent was added and shake assay plate for 5 min at 1500 rpm. The assay plate was allowed to sit for 30 min at room temperature and then read plate on EnVision.
row,SMILES,IC50 [µM]
1,"COCCN[C@@H]1C[C@H](C)C[C@@H](c2ccc(C(F)(F)F)c3ncccc23)C1 (racemic) [Compound 151, (1,trans-3,trans-5,cis)-N-(2-methoxyethyl)-3-methyl-5-(8-(trifluoromethyl)quinolin-5-yl)cyclohexanamine]",1 to 20
2,"COCCN[C@@H]1C[C@H](C)C[C@H](c2ccc(F)c3nccnc23)C1 (racemic) [Compound 159, (cis-1,3,5)-3-(8-fluoroquinoxaline-5-yl)-N-(2-methoxyethyl)-5-methylcyclohexan-1-amine]",1 to 20
3,C[C@@H]1C[C@H](c2ccc(C(F)(F)F)c3ncccc23)CN(C)C1 (relative stereo) [Compound 5],> 20
4,C[C@@H]1C[C@@H](c2ccc(C(F)(F)F)c3ncccc23)CN(C)C1 (relative stereo) [Compound 6],> 20
5,C[C@@H]1C[C@H](c2ccc(C(F)(F)F)c3ncccc23)CN(CCO)C1 (relative stereo) [Compound 7],> 20
6,C[C@@H]1C[C@@H](c2ccc(C(F)(F)F)c3ncccc23)CN(CCO)C1 (relative stereo) [Compound 8],> 20
7,"CC(=O)N1C[C@@H](C)C[C@H](c2ccc(C(F)(F)F)c3ncccc23)C1 (relative stereo) [Compound 9, trans-1-[3-Methyl-5-(8-trifluoromethyl-quinolin-5-yl)-piperidin-1-yl]-ethanone]",> 20
8,"CC(=O)N1C[C@H](C)C[C@H](c2ccc(C(F)(F)F)c3ncccc23)C1 (relative stereo) [Compound 10, cis-1-[3-Methyl-5-(8-trifluoromethyl-quinolin-5-yl)-piperidin-1-yl]-ethanone]",> 20
9,C[C@@H]1C[C@@H](c2ccc(C(F)(F)F)c3ncccc23)CN(C(=O)CCn2cccn2)C1 (relative stereo) [Compound 13],> 20
10,C[C@@H]1C[C@H](c2ccc(C(F)(F)F)c3ncccc23)CN(C(=O)Cn2cccn2)C1 (relative stereo) [Compound 14],> 20
11,C[C@@H]1C[C@@H](c2ccc(C(F)(F)F)c3ncccc23)CN(C(=O)Cn2cccn2)C1 (relative stereo) [Compound 15],> 20
12,C[C@@H]1C[C@H](c2ccc(C(F)(F)F)c3ncccc23)CN(C(=O)CN2CCOCC2)C1 (relative stereo) [Compound 16],> 20
13,C[C@@H]1C[C@H](c2ccc(C#N)c3ncccc23)CN(C(=O)Cc2cccnc2)C1 (relative stereo) [Compound 20],> 20
14,C[C@@H]1C[C@H](c2ccc(C#N)c3ncccc23)CN(C(=O)CCc2cccnc2)C1 (relative stereo) [Compound 24],> 20
15,C[C@@H]1C[C@H](c2ccc(C#N)c3ncccc23)CN(C(=O)CC(F)(F)F)C1 (relative stereo) [Compound 26],> 20
16,"C[C@@H]1C[C@H](c2ccc(C#N)c3ncccc23)CN(C(=O)CC2CC2)C1 (relative stereo) [Compound 28, Cis 5-[1-(2-Cyclopropyl-acetyl)-5-methyl-piperidin-3-yl]-quinoline-8-carbonitrile]",1 to 20
17,C[C@@H]1C[C@H](c2ccc(C#N)c3ncccc23)CN(C(=O)C2CN(C)C2)C1 (relative stereo) [Compound 31],1 to 20
18,C[C@@H]1C[C@@H](c2ccc(C#N)c3ncccc23)CN(C(=O)C2CN(C)C2)C1 (relative stereo) [Compound 32],1 to 20

# More lines, now with the values ahead:
row,IC50 [µM],SMILES
1,1 to 20,"C[C@H]1C[C@@H](NC(=O)CC2CC2(F)F)C[C@@H](c2ccc(C#N)c3nccnc23)C1 (mixture of isomers) [Compound 156, N-[(cis-1,3,5)-3-(8-cyanoquinoxalin-5-yl)-5-methylcyclohexyl]-2-(2,2-difluorocyclopropyl)acetamide]"
2,< 1,"C[C@@H]1C[C@H](c2ccc(C(F)(F)F)c3ncccc23)CN(C(=O)CC2CCN(C)CC2)C1 (racemic) [Compound 4, cis-2-(1-Methyl-piperidin-4-yl)-1-[3-methyl-5-(8-trifluoromethyl-quinolin-5-yl)-piperidin-1-yl]-ethanone]"
3,< 1,CC(C)N1CCC(CC(=O)N2C[C@H](C)C[C@H](c3ccc(C#N)c4ncccc34)C2)CC1 (racemic) [Compound 19]
4,< 1,"C[C@@H]1C[C@H](c2ccc(C#N)c3ncccc23)CN(C(=O)CN2CC3CCC2CN3)C1 (mixture of isomers) [Compound 116, 5-[(3R,5R)-1-(2-2,5-Diaza-bicyclo[2.2.2]oct-2-yl-acetyl)-5-methyl-piperidin-3-yl]-quinoline-8-carbonitrile]"
5,< 1,"C[C@H]1C[C@@H](N)C[C@@H](c2ccc(C#N)c3nccnc23)C1 (racemic) [Compound 120, 8-((S,3R,5R)-3-amino-5-methylcyclohexyl) quinoxaline-5-carbonitrile]"
6,< 1,"C[C@H]1C[C@@H](NC(=O)CC(C)(C)C)C[C@@H](c2ccc(C#N)c3nccnc23)C1 (racemic) [Compound 129, N-[(cis-1,3,5)-3-(8-cyanoquinoxalin-5-yl)-5-methylcyclohexyl]-3,3-dimethylbutanamide]"
7,1 to 20,"C[C@H]1C[C@@H](NC(=O)CC(C)(C)C)C[C@H](c2ccc(C#N)c3nccnc23)C1 (racemic) [Compound 130, N-[(1,cis-3,trans-5,cis)-3-(8-cyanoquinoxalin-5-yl)-5-methylcyclohexyl]-3,3-dimethylbutanamide]"
8,< 1,"C[C@H]1C[C@@H](NC(=O)CN(C)C)C[C@@H](c2ccc(C#N)c3nccnc23)C1 (racemic) [Compound 131, N-[(cis-1,3,5)-3-(8-cyanoquinoxalin-5-yl)-5-methylcyclohexyl]-2-(dimethylamino)acetamide]"
9,1 to 20,"C[C@H]1C[C@@H](NC(=O)CN(C)C)C[C@H](c2ccc(C#N)c3nccnc23)C1 (racemic) [Compound 132, N-[(1,cis-3,trans-5,cis)-3-(8-cyanoquinoxalin-5-yl)-5-methylcyclohexyl]-2-(dimethylamino)acetamide]"
10,1 to 20,"C[C@H]1C[C@@H](NC(=O)[C@@H](N)C(F)(F)F)C[C@@H](c2ccc(C#N)c3nccnc23)C1 (racemic) [Compound 143, (2R)-2-amino-N-((cis-1,3,5)-3-(8-cyanoquinoxalin-5-yl)-5-methylcyclohexyl)-3,3,3-trifluoropropanamide]"
11,1 to 20,"C[C@H]1C[C@@H](NC(=O)[C@H](N)C(F)(F)F)C[C@@H](c2ccc(C#N)c3nccnc23)C1 (racemic) [Compound 144, (2S)-2-amino-N-((cis-1,3,5)-3-(8-cyanoquinoxalin-5-yl)-5-methylcyclohexyl)-3,3,3-trifluoropropanamide]"
12,1 to 20,"C[C@H]1C[C@@H](NC(=O)[C@H](N)C(F)(F)F)C[C@H](c2ccc(C#N)c3nccnc23)C1 (racemic) [Compound 145, (2R)-2-amino-N-((1,cis-3cis-5,trans)-3-(8-cyanoquinoxalin-5-yl)-5-methylcyclohexyl)-3,3,3-trifluoropropanamide]"
13,1 to 20,"C[C@H]1C[C@@H](NC(=O)[C@@H](N)C(F)(F)F)C[C@H](c2ccc(C#N)c3nccnc23)C1 (racemic) [Compound 146, (2S)-2-amino-N-((1,cis-3cis-5,trans)-3-(8-cyanoquinoxalin-5-yl)-5-methylcyclohexyl)-3,3,3-trifluoropropanamide]"
14,< 1,"C[C@H]1C[C@@H](NC(=O)CN2CCCCC2)C[C@@H](c2ccc(C#N)c3nccnc23)C1 (racemic) [Compound 157, N-[(cis-1,3,5)-3-(8-cyanoquinoxalin-5-yl)-5-methylcyclohexyl]-2-(piperidin-1-yl)acetamide]"
15,< 1,"C[C@H]1C[C@@H](NC(=O)CN2CCN(C)CC2)C[C@@H](c2ccc(C#N)c3nccnc23)C1 (racemic) [Compound 158, N-[(cis-1,3,5)-3-(8-cyanoquinoxalin-5-yl)-5-methylcyclohexyl]-2-(4-methylpiperazin-1-yl)acetamide]"
16,< 1,C[C@@H]1C[C@H](c2ccc(C#N)c3ncccc23)CN(C(=O)CN2CCN(C)CC2)C1 (relative stereo) [Compound 29]
17,< 1,C[C@@H]1C[C@@H](c2ccc(C#N)c3ncccc23)CN(C(=O)CN2CCN(C)CC2)C1 (relative stereo) [Compound 30]
